According to publication PMC2939254 (Neuroscience, 2010):
Where two headings read alike, the source gives them in different places.

What was measured:
[1] = test system: NR1b/NR2B NMDAR expressed in HEK293 cells; type: cell-based, rat; details: pH 7.35
[2] = test system: NR1b/NR2A NMDAR expressed in HEK293 cells; type: cell-based, rat; details: pH 7.35
[3] = test system: NR1a/NR2B NMDAR expressed in HEK293 cells; type: cell-based, rat; details: pH 7.35
[4] = test system: NR1a/NR2A NMDAR expressed in HEK293 cells; type: cell-based, rat; details: pH 7.35
NR2B-containing NMDAR = type: cell-based, rat
[5] = test system: NR2A-containing NMDAR complexes; type: cell-based, rat
[6] = test system: NR1b/NR2A NMDAR expressed in HEK293 cells; details: cited from earlier work
[7] = test system: NR1a/NR2B NMDAR expressed in HEK293 cells; details: cited from earlier work
[8] = test system: NR1a/NR2A NMDAR expressed in HEK293 cells; details: cited from earlier work
[9] = test system: NR1b/NR2B NMDAR expressed in HEK293 cells; details: cited from earlier work

Substance | % maximal inhibition, 1b/2B [1] | % maximal inhibition, 1b/2A [2] | % maximal inhibition, 1a/2B [3] | % maximal inhibition, 1a/2A [4] | maximal inhibition of NR2B-containing NMDAR (NR2B-containing NMDAR) | inhibition of NR2A-containing NMDAR complexes [5] | % maximal inhibition, 1b/2A [6] | % maximal inhibition, 1a/2B [7] | % maximal inhibition, 1a/2A [8] | % maximal inhibition, 1b/2B [9]
GEγγLAKNA AγLARγNI(NH2) [con-R′ [V5L/ΔA10]] | 71 ± 3% | 0% | 69 ± 4% | 0% | – | – | – | – | – | –
GEγγLQANQγLIRγKSN(NH2) [con-G[γ7A]] | 95 ± 3% | 0% | 90 ± 4% | 0% | – | – | – | – | – | –
GEγγLQKMLγNLRγAEVKKNA(NH2) [con-T[Y5L]] | 90 ± 6% | 86 ± 7% | 85 ± 3% | 80 ± 6% | – | – | – | – | – | –
GEγγLQKNQγLIRγKSN(NH2) [con-G[γ7K]] | 94 ±2% | 0% | 82 ± 5% | 0% | – | – | – | – | – | –
GEγγLQγNQγNLRγAEVKKNA(NH2) [con-G/T] | 86 ± 4% | 0% | 80 ± 5% | 0% | > 80% | no inhibition | – | – | – | –
GEγγVAAMAAγLARγNI(NH2) [con-R′ [K7A]] | 95 ± 2% | 93 ± 4% | 91 ± 3% | 93 ± 3% | – | – | – | – | – | –
GEγγVAKAAAγLARγNI(NH2) [con-R′ [M8A]] | 88 ± 4% | 0% | 85 ± 3% | 0% | – | – | – | – | – | –
GEγγVAKMA AγLARγNI(NH2) [con-R′ [ΔA10]] | 65 ± 5% | 0% | 55 ± 6% | 0% | – | – | – | – | – | –
GEγγVAKNAAγLARγNI(NH2) [con-R′ [M8N]] | 66 ± 5% | 60 ± 7% | 53 ± 5% | 45 ± 6% | – | – | – | – | – | –
GEγγVQKMAAγLARγNI(NH2) [con-R′ [A6Q]] | 90 ± 4% | 72 ± 6% | 84 ± 5% | 50 ± 7% | – | – | – | – | – | –
GEγγVQKMQAγLARγNI(NH2) [con-R′ [A6Q/A9Q]] | 79 ± 5% | 25 ± 5% | 70 ± 6% | 0% | – | – | – | – | – | –
GEγγYAKNA AγLARγNI(NH2) [con-R′ [V5Y/ΔA10]] | 90 ± 3% | 84 ± 4% | 87 ± 5% | 82 ± 6% | – | – | – | – | – | –
GEγγYQAMLγNLRγAEVKKNA(NH2) [con-T[K7A]] | 94 ± 2% | 91 ± 3% | 85 ± 5% | 93 ± 2% | – | – | – | – | – | –
GEγγYQKALAγNLRγAEVKKNA(NH2) [con-T[M8A/+A10]] | 67 ± 5% | 0% | 63 ± 4% | 0% | – | – | – | – | – | –
GEγγYQKALγNLRγAEVKKNA(NH2) [con-T[M8A]] | – | – | – | – | – | – | 0% | 73 ± 8% | 0% | 81 ± 5%
GEγγYQKGLγNLRγAEVKKNA(NH2) [con-T[M8G]] | 84 ± 4% | 0% | 80 ± 5% | 0% | – | – | – | – | – | –
GEγγYQKMAγNLRγAEVKKNA(NH2) [con-T[L9A]] | 95 ± 2% | 91 ± 3% | 92 ± 5% | 93 ± 2% | – | – | – | – | – | –
GEγγYQKNLγNLRγAEVKKNA(NH2) [con-T[M8N]] | – | – | – | – | – | – | 56 ± 7% | 82 ± 5% | 48 ± 6% | 90 ± 4%
GEγγYQγMLγNLRγAEVKKNA(NH2) [con-T[K7γ]] | 90 ± 2% | 82 ± 6% | 86 ± 5% | 78 ± 4% | – | – | – | – | – | –
